Measured values taken from US9452997B2, “Piperidine and piperazine derivatives as autotaxin inhibitors” (Merck Patent GmbH, priority 2009, dated 2016).
pIC50: −log10 of the molar value.

target: T1, Recombinant autotaxin (Homo sapiens, UniProt Q13822); assay: Autotaxin assay (Amplex Red, LPC substrate); format: biochemical; conditions: recombinant autotaxin, LPC substrate, Amplex Red detection; values given as upper bounds
T1 construct: made in house; host or cells: Hi5 insect cells (baculovirus)
Summary of the method: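 Recombinant autotaxin (Hi5 baculovirus, 16 ng) pre-incubated with compound 30 min at 22° C, then reacted with 75 μM egg LPC for 90 min at 37° C. Choline released is coupled to H2O2 and Amplex Red fluorescence (ex 485/em 612 nm). IC50 from ten 1:3 dilutions from 30 μM, duplicates, normalised to 500 μM C14 LPA.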

Structure (SMILES) | pIC50
O=C(Nc1ccc2[nH]nnc2c1)C1CC(=O)N(C2CCN(C(=O)OCc3cc(Cl)cc(Cl)c3)CC2)C1 (stereo not drawn) [Compound 4, 4-[4-(1H-Benzotriazol-5-ylcarbamoyl)-2-oxo-pyrrolidin-1-yl]-piperidine-1-carboxylic acid 3,5-dichloro-benzyl ester] | > 6.00
CC(CC(=O)N1CCN(C2CCN(C(=O)c3ccc4[nH]nnc4c3)CC2)CC1)c1ccc(C(F)(F)F)cc1 (stereo not drawn) [Compound 177, 1-{4-[1-(1H-Benzotriazole-5-carbonyl)-piperidin-4-yl]-piperazin-1-yl}-3-(4-trifluoromethyl-phenyl)-butan-1-one] | > 5.00
COc1c(C)cc(COC(=O)N2CCN(C3CCN(C(=O)c4ccc5[nH]nnc5c4)CC3)CC2)cc1C [Compound 120, 4-[1-(1H-Benzotriazole-5-carbonyl)-piperidin-4-yl]-piperazine-1-carboxylic acid 4-methoxy-3,5-dimethyl-benzyl ester] | > 5.00
